Measurements: the NIST ThermoML archive (doi:10.1016/j.fluid.2015.03.015)

Experiment: refractive index (other wavelength) (dimensionless); xn = mol fraction of the nth substance listed

CCCC(C)O (stereo not drawn) [pentan-2-ol] + CCCCCCCC[n+]1ccn(C)c1.F[B-](F)(F)F
Minimum deviation
Conditions | refractive index
284.59 K, Liquid mixture 1, Wavelength=623.8 nm, x2 = 0.01 | 1.4096
284.59 K, Liquid mixture 2, Wavelength=623.8 nm, x2 = 0.347 | 1.4237
285.29 K, Liquid mixture 1, Wavelength=623.8 nm, x2 = 0.01 | 1.4093
285.29 K, Liquid mixture 2, Wavelength=623.8 nm, x2 = 0.338 | 1.4232
286.13 K, Liquid mixture 1, Wavelength=623.8 nm, x2 = 0.012 | 1.4091
286.13 K, Liquid mixture 2, Wavelength=623.8 nm, x2 = 0.332 | 1.4227
286.89 K, Liquid mixture 1, Wavelength=623.8 nm, x2 = 0.013 | 1.4088
286.89 K, Liquid mixture 2, Wavelength=623.8 nm, x2 = 0.319 | 1.422
287.65 K, Liquid mixture 1, Wavelength=623.8 nm, x2 = 0.015 | 1.4086
287.65 K, Liquid mixture 2, Wavelength=623.8 nm, x2 = 0.315 | 1.4216
288.25 K, Liquid mixture 1, Wavelength=623.8 nm, x2 = 0.016 | 1.4084
288.25 K, Liquid mixture 2, Wavelength=623.8 nm, x2 = 0.307 | 1.4211
288.92 K, Liquid mixture 1, Wavelength=623.8 nm, x2 = 0.016 | 1.4081
288.92 K, Liquid mixture 2, Wavelength=623.8 nm, x2 = 0.293 | 1.4204
289.54 K, Liquid mixture 1, Wavelength=623.8 nm, x2 = 0.019 | 1.408
289.54 K, Liquid mixture 2, Wavelength=623.8 nm, x2 = 0.288 | 1.42
290.07 K, Liquid mixture 1, Wavelength=623.8 nm, x2 = 0.021 | 1.4079
290.07 K, Liquid mixture 2, Wavelength=623.8 nm, x2 = 0.279 | 1.4195
290.61 K, Liquid mixture 1, Wavelength=623.8 nm, x2 = 0.021 | 1.4077
290.61 K, Liquid mixture 2, Wavelength=623.8 nm, x2 = 0.271 | 1.419
291.08 K, Liquid mixture 1, Wavelength=623.8 nm, x2 = 0.023 | 1.4076
291.08 K, Liquid mixture 2, Wavelength=623.8 nm, x2 = 0.264 | 1.4186
291.55 K, Liquid mixture 1, Wavelength=623.8 nm, x2 = 0.025 | 1.4075
291.55 K, Liquid mixture 2, Wavelength=623.8 nm, x2 = 0.255 | 1.4181
292.02 K, Liquid mixture 1, Wavelength=623.8 nm, x2 = 0.027 | 1.4074
292.02 K, Liquid mixture 2, Wavelength=623.8 nm, x2 = 0.247 | 1.4176
292.46 K, Liquid mixture 1, Wavelength=623.8 nm, x2 = 0.03 | 1.4074
292.46 K, Liquid mixture 2, Wavelength=623.8 nm, x2 = 0.235 | 1.417
292.84 K, Liquid mixture 1, Wavelength=623.8 nm, x2 = 0.031 | 1.4073
292.84 K, Liquid mixture 2, Wavelength=623.8 nm, x2 = 0.229 | 1.4166
293.15 K, Liquid mixture 1, Wavelength=623.8 nm, x2 = 0.035 | 1.4074
293.15 K, Liquid mixture 2, Wavelength=623.8 nm, x2 = 0.221 | 1.4162
293.41 K, Liquid mixture 1, Wavelength=623.8 nm, x2 = 0.037 | 1.4074
293.41 K, Liquid mixture 2, Wavelength=623.8 nm, x2 = 0.211 | 1.4157
293.63 K, Liquid mixture 1, Wavelength=623.8 nm, x2 = 0.04 | 1.4075
293.63 K, Liquid mixture 2, Wavelength=623.8 nm, x2 = 0.206 | 1.4154
293.78 K, Liquid mixture 1, Wavelength=623.8 nm, x2 = 0.041 | 1.4075
293.78 K, Liquid mixture 2, Wavelength=623.8 nm, x2 = 0.202 | 1.4152
293.89 K, Liquid mixture 1, Wavelength=623.8 nm, x2 = 0.044 | 1.4076
293.89 K, Liquid mixture 2, Wavelength=623.8 nm, x2 = 0.201 | 1.4151
293.99 K, Liquid mixture 1, Wavelength=623.8 nm, x2 = 0.045 | 1.4076
293.99 K, Liquid mixture 2, Wavelength=623.8 nm, x2 = 0.197 | 1.4149
294.09 K, Liquid mixture 1, Wavelength=623.8 nm, x2 = 0.047 | 1.4077
294.09 K, Liquid mixture 2, Wavelength=623.8 nm, x2 = 0.193 | 1.4147
294.19 K, Liquid mixture 1, Wavelength=623.8 nm, x2 = 0.048 | 1.4077
294.19 K, Liquid mixture 2, Wavelength=623.8 nm, x2 = 0.189 | 1.4145
294.27 K, Liquid mixture 1, Wavelength=623.8 nm, x2 = 0.05 | 1.4078
294.27 K, Liquid mixture 2, Wavelength=623.8 nm, x2 = 0.188 | 1.4144
294.35 K, Liquid mixture 1, Wavelength=623.8 nm, x2 = 0.053 | 1.4079
294.35 K, Liquid mixture 2, Wavelength=623.8 nm, x2 = 0.184 | 1.4142
294.42 K, Liquid mixture 1, Wavelength=623.8 nm, x2 = 0.054 | 1.4079
294.42 K, Liquid mixture 2, Wavelength=623.8 nm, x2 = 0.18 | 1.414
294.49 K, Liquid mixture 1, Wavelength=623.8 nm, x2 = 0.056 | 1.408
294.49 K, Liquid mixture 2, Wavelength=623.8 nm, x2 = 0.175 | 1.4138
294.54 K, Liquid mixture 1, Wavelength=623.8 nm, x2 = 0.058 | 1.4081
294.54 K, Liquid mixture 2, Wavelength=623.8 nm, x2 = 0.174 | 1.4137
294.6 K, Liquid mixture 1, Wavelength=623.8 nm, x2 = 0.06 | 1.4082
294.6 K, Liquid mixture 2, Wavelength=623.8 nm, x2 = 0.172 | 1.4136
294.64 K, Liquid mixture 1, Wavelength=623.8 nm, x2 = 0.063 | 1.4083
294.64 K, Liquid mixture 2, Wavelength=623.8 nm, x2 = 0.168 | 1.4134
294.68 K, Liquid mixture 1, Wavelength=623.8 nm, x2 = 0.065 | 1.4084
294.68 K, Liquid mixture 2, Wavelength=623.8 nm, x2 = 0.166 | 1.4133
294.73 K, Liquid mixture 1, Wavelength=623.8 nm, x2 = 0.067 | 1.4085
294.73 K, Liquid mixture 2, Wavelength=623.8 nm, x2 = 0.162 | 1.4131
294.77 K, Liquid mixture 1, Wavelength=623.8 nm, x2 = 0.069 | 1.4086
294.77 K, Liquid mixture 2, Wavelength=623.8 nm, x2 = 0.157 | 1.4129
294.8 K, Liquid mixture 1, Wavelength=623.8 nm, x2 = 0.071 | 1.4087
294.8 K, Liquid mixture 2, Wavelength=623.8 nm, x2 = 0.153 | 1.4127
294.83 K, Liquid mixture 1, Wavelength=623.8 nm, x2 = 0.073 | 1.4088
294.83 K, Liquid mixture 2, Wavelength=623.8 nm, x2 = 0.149 | 1.4125
294.87 K, Liquid mixture 1, Wavelength=623.8 nm, x2 = 0.077 | 1.409
294.87 K, Liquid mixture 2, Wavelength=623.8 nm, x2 = 0.145 | 1.4123
294.88 K, Liquid mixture 1, Wavelength=623.8 nm, x2 = 0.079 | 1.4091
294.88 K, Liquid mixture 2, Wavelength=623.8 nm, x2 = 0.143 | 1.4122
294.89 K, Liquid mixture 1, Wavelength=623.8 nm, x2 = 0.083 | 1.4093
294.89 K, Liquid mixture 2, Wavelength=623.8 nm, x2 = 0.141 | 1.4121
294.9 K, Liquid mixture 1, Wavelength=623.8 nm, x2 = 0.085 | 1.4094
294.9 K, Liquid mixture 2, Wavelength=623.8 nm, x2 = 0.139 | 1.412
294.91 K, Liquid mixture 1, Wavelength=623.8 nm, x2 = 0.085 | 1.4094
294.91 K, Liquid mixture 1, Wavelength=623.8 nm, x2 = 0.087 | 1.4095
294.91 K, Liquid mixture 2, Wavelength=623.8 nm, x2 = 0.132 | 1.4117
294.91 K, Liquid mixture 2, Wavelength=623.8 nm, x2 = 0.134 | 1.4118
294.92 K, Liquid mixture 1, Wavelength=623.8 nm, x2 = 0.088 | 1.4095
294.92 K, Liquid mixture 1, Wavelength=623.8 nm, x2 = 0.09 | 1.4096
294.92 K, Liquid mixture 2, Wavelength=623.8 nm, x2 = 0.128 | 1.4115
294.92 K, Liquid mixture 2, Wavelength=623.8 nm, x2 = 0.13 | 1.4116
294.93 K, Liquid mixture 1, Wavelength=623.8 nm, x2 = 0.091 | 1.4097
294.93 K, Liquid mixture 1, Wavelength=623.8 nm, x2 = 0.093 | 1.4098
294.93 K, Liquid mixture 1, Wavelength=623.8 nm, x2 = 0.097 | 1.41
294.93 K, Liquid mixture 1, Wavelength=623.8 nm, x2 = 0.099 | 1.4101
294.93 K, Liquid mixture 2, Wavelength=623.8 nm, x2 = 0.118 | 1.411
294.93 K, Liquid mixture 2, Wavelength=623.8 nm, x2 = 0.122 | 1.4112
294.93 K, Liquid mixture 2, Wavelength=623.8 nm, x2 = 0.124 | 1.4113
294.93 K, Liquid mixture 2, Wavelength=623.8 nm, x2 = 0.126 | 1.4114

85 kPa, Liquid, Wavelength=632.8 nm, Minimum Deviation
Conditions | refractive index
288.19 K, x2 = 0.599 | 1.4284
288.8 K, x2 = 0.899 | 1.4331
288.81 K, x2 = 0.798 | 1.4316
288.98 K, x2 = 0.7 | 1.4298
289.74 K, x2 = 0.599 | 1.428
290.84 K, x2 = 0.798 | 1.4311
290.84 K, x2 = 0.899 | 1.4326
290.99 K, x2 = 0.7 | 1.4293
291.3 K, x2 = 0.599 | 1.4275
292.85 K, x2 = 0.599 | 1.427
292.89 K, x2 = 0.899 | 1.432
292.91 K, x2 = 0.798 | 1.4305
293.05 K, x2 = 0.7 | 1.4287
293.9 K, x2 = 0.4 | 1.422
294.42 K, x2 = 0.599 | 1.4265
294.98 K, x2 = 0.798 | 1.4299
294.98 K, x2 = 0.899 | 1.4314
295.13 K, x2 = 0.7 | 1.4281
295.53 K, x2 = 0.099 | 1.4101
295.95 K, x2 = 0.4 | 1.4213
296.02 K, x2 = 0.3 | 1.4182
296.02 K, x2 = 0.599 | 1.426
296.13 K, x2 = 0.5 | 1.4238
297.03 K, x2 = 0.798 | 1.4293
297.03 K, x2 = 0.899 | 1.4308
297.19 K, x2 = 0.7 | 1.4275
297.57 K, x2 = 0.3 | 1.4177
297.68 K, x2 = 0.5 | 1.4233
297.86 K, x2 = 0.099 | 1.4092
298.01 K, x2 = 0.4 | 1.4207
299.09 K, x2 = 0.3 | 1.4172
299.11 K, x2 = 0.798 | 1.4287
299.11 K, x2 = 0.899 | 1.4303
299.22 K, x2 = 0.2 | 1.4133
299.22 K, x2 = 0.7 | 1.4269
299.24 K, x2 = 0.5 | 1.4229
299.91 K, x2 = 0.099 | 1.4085
300.06 K, x2 = 0.4 | 1.4201
300.66 K, x2 = 0.3 | 1.4167
300.8 K, x2 = 0.2 | 1.4128
300.8 K, x2 = 0.5 | 1.4224
302 K, x2 = 0.099 | 1.4077
302.14 K, x2 = 0.4 | 1.4194
302.24 K, x2 = 0.3 | 1.4162
302.34 K, x2 = 0.5 | 1.4219
302.35 K, x2 = 0.2 | 1.4122
303.8 K, x2 = 0.3 | 1.4156
303.88 K, x2 = 0.2 | 1.4117
304.07 K, x2 = 0.099 | 1.4069
304.17 K, x2 = 0.4 | 1.4187
304.17 K, x2 = 0.5 | 1.4213
305.44 K, x2 = 0.2 | 1.4111
306.2 K, x2 = 0.099 | 1.4061
307.01 K, x2 = 0.2 | 1.4105
